Laboratory results: patent publication US7169815B2, “3-methoxybenzyl thiourea derivatives and improved lipid compositions containing same” (The United States of America as represented by the …, priority 2000, dated 2007)

Tests used:
[1] = UVB and UVA molar absorptivities in chloroform; format: physicochemical; conditions: 0.01 mg/ml in chloroform
Description: The compounds synthesized in Example 3 were tested to determine their ability to absorb […] UVA light. UV spectra of quantitatively weighed and diluted samples (0.01 mg/ml) in chloroform were scanned from 244–450 nm at 240 nm/min on a Beckman DU 640 spectrophotometer (Beckman Coulter, Inc., Fullerton, Calif.). Amax in the 280–320 nm range was determined and converted to molar absorptivity for the UVB region, and Amax in the 320–400 nm range was determined and converted to molar absorptivity for the UVA region.

[2] = Oxidative Stability by Rotating Pressure Vessel (RBOT) of refined meadowfoam seed oil plus thiourea compounds
Text: Another presently preferred method of determining oxidative stability of lipids and oils employs the Oxidative Stability by Rotating Pressure Vessel (RBOT) test. In this test, oxidative stability, determined according to the ASTM D2272-98 test method (ASTM, 2001, “Standard Test Method for Oxidation Stability of Steam Turbine Oils by Rotating Pressure Vessel,” in Book of Standards, Vol. 05.01., American Society for Testing and Materials, West Conshohocken, Pa.), measures the time for oxygen pressure to decrease in a closed stainless steel vessel containing a lipid or oil when heated with a copper coil catalyst. Oxygen taken up by the lipid or oil during the reaction is an indication of oil degradation.
In these experiments, Oxidative Stability by Rotating Pressure Vessel (RBOT) tests were performed with different 3-methoxybenzyl thiourea compounds synthesized in Example 3 that were mixed in different quantities with different mono- and polyunsaturated vegetable oils. Hexane was used to clean and store the copper coils, but all other aspects of the Oxidative Stability by Rotating Pressure Vessel (RBOT) test were the same as in the standard ASTM D2272–98 test method (ASTM, 2001, “Standard Test Method for Oxidation Stability of Steam Turbine Oils by Rotating Pressure Vessel,” in Book of Standards, Vol. 05.01., American Society for Testing and Materials, West Conshohocken, Pa.).

[3] = Oxidative Stability Index (OSI) of refined meadowfoam seed oil plus additives; conditions: 130° C.; for increase in the OSI time: refined meadowfoam seed oil, versus oil with no additives
Text: A presently preferred method of determining oxidative stability of lipids and oils employs the Oxidative Stability Index (OSI), which determines the oxidative stability of an oil by passing air through a sample under stringent temperature control. (Firestone, Oxidative Stability Index (OSI): Official Methods of Recommended Practices of the American Oil Chemists' Society (AOCS), 4th Ed. American Oil Chemists Society, Champaign, Ill., AOCS Official Method Cd 12b-92, 1993.) In this method, a stream of air is passed through the oil sample, which aids in the rapid degradation of the triglyceride into volatile organic acids. The air stream flushes the volatile acids from the oil into a conductivity cell containing water where the acids are solubilized. These acids, once dissolved in the water solution, disassociate into ions, thus changing the conductivity of the water. Therefore, a continuous measure of the conductivity of the cell by computer will indicate when a rapid rise in the conductivity occurs that corresponds to the induction point, oxidative failure of the sample. The time to the induction point is the OSI time. […] Saturated fatty acid methyl ester (FAME) standards commercially available from Alltech Associates (Deerfield, Ill.) may be used to calibrate the OSI determinations.
OSI determinations may be performed on an oxidative stability instrument manufactured by Omnion (Rockland, Mass.) using the AOCS method described in the above-disclosed Firestone reference. Lipid or oil samples may be run at 110° C. and FAMEs may be tested at 90° C., with air flow set at 35 kPa with a resulting velocity of about 140 ml/min. A presently preferred method for determining OSI values is described by T. A. Isbell et al., “Oxidative Stability Index of Vegetable Oils in Binary Mixtures with Meadowfoam Oil,” Industrial Crops and Products 9, 115–123 (1999).
Unless otherwise stated, Oxidative Stability Index (OSI) values were determined on 5.00 ±0.05 g lipid or oil samples in triplicate according to AOCS Official Method Cd 12b-92 (AOCS, 1993) at 90° C., 110° C. and/or 130° C. on an oxidative stability instrument manufactured by Omnion (Rockland, Mass.). Details of the procedure have been published by Isbell et al., “Oxidative Stability Index of Vegetable Oils in Binary Mixtures with Meadowfoam Oil,” Ind. Crops Prod. 9, 115–123 (1999). When compounds of the present invention were added to the lipid or oil sample being tested, the compounds (0.1% to 1.0% by weight) were added to the test lipid or oil (20 g) and dissolved or dispersed at room temperature before triplicate 5.00 g samples of lipid or oil with an added compound of the invention were weighed into the OSI test tube.
The 1,3-di(3-methoxybenzyl) thiourea prepared in Example 3 was mixed at 0.1%, 0.5% or 1.0% with refined meadowfoam seed oil (Lot #CW-4551, The Fanning Corp) and the oxidative stability of the mixtures was compared to that of refined meadowfoam seed oil at 130° C. The OSI times were 49.8 h, 159 h and 172 h, respectively, for the mixtures containing the thiourea compared to an OSI time of 14.9 h for this lot of refined meadowfoam seed oil with no additives at 130° C.
Thus, 1,3-bis(2-methoxyphenyl)-2-thiourea (Aldrich Chem Co.) added at 0. […] Likewise, 1,3-bis(3-methoxyphenyl)-2-thiourea at 0. 1% added to refined meadowfoam oil gave an OSI time of 27.0 h, an […] lower value than for the 1,3-di-(3-methoxybenzyl) thiourea produced in Example 3.

[4] = OSI test of soybean oil mixed with additive; conditions: 1.0% additive, 130° C.
Text: (§1) A presently preferred method of determining oxidative stability of lipids and oils employs the Oxidative Stability Index (OSI), which determines the oxidative stability of an oil by passing air through a sample under stringent temperature control. (Firestone, Oxidative Stability Index (OSI): Official Methods of Recommended Practices of the American Oil Chemists' Society (AOCS), 4th Ed. American Oil Chemists Society, Champaign, Ill., AOCS Official Method Cd 12b-92, 1993.) In this method, a stream of air is passed through the oil sample, which aids in the rapid degradation of the triglyceride into volatile organic acids. The air stream flushes the volatile acids from the oil into a conductivity cell containing water where the acids are solubilized. These acids, once dissolved in the water solution, disassociate into ions, thus changing the conductivity of the water. Therefore, a continuous measure of the conductivity of the cell by computer will indicate when a rapid rise in the conductivity occurs that corresponds to the induction point, oxidative failure of the sample. […]
(§2) Unless otherwise stated, Oxidative Stability Index (OSI) values were determined on 5.00 ±0.05 g lipid or oil samples in triplicate according to AOCS Official Method Cd 12b-92 (AOCS, 1993) at 90° C., 110° C. and/or 130° C. on an oxidative stability instrument manufactured by Omnion (Rockland, Mass.). […]

[5] = OSI test of milkweed seed oil mixed with additive; conditions: 1.0% additive, 130° C.
Text: as §1, §2

## COc1cccc(CNC(=S)NCc2cccc(OC)c2)c1 [1,3-di(3-methoxybenzyl) thiourea]
[1]; Amax in 280–320 nm
  UVBMAX Molar Absorptivity: 5367
[1]; Amax in 320–400 nm
  UVAMAX Molar Absorptivity: 0.0
[2]; Refined Meadowfoam Seed Oil plus 0.05% compound
  Oxidative Stability (RBOT): 33 min
[2]; Refined Meadowfoam Seed Oil plus 0.1% compound
  Oxidative Stability (RBOT): 40 min
[2]; Refined Meadowfoam Seed Oil plus 0.2% compound
  Oxidative Stability (RBOT): 41 min
[2]; Refined Meadowfoam Seed Oil plus 1.0% compound
  Oxidative Stability (RBOT): 41 min
[2]; addition of 0.1% compound
  Oxidative stability in the RBOT test, in words: doubled
[3]; refined meadowfoam seed oil Lot #CW-4551, 0.1% additive
  OSI Time: 49.8 h
[3]; refined meadowfoam seed oil Lot #CW-4551, 0.5% additive
  OSI Time: 159 h
[3]; refined meadowfoam seed oil Lot #CW-4551, 1.0% additive
  OSI Time: 172 h
[3]; refined meadowfoam seed oil plus additive 0.1%
  OSI Time: 49.8 h
[3]; refined meadowfoam seed oil plus additive 0.5%
  OSI Time: 159 h
[3]; refined meadowfoam seed oil plus additive 1.0%
  OSI Time: 172 h
[3]; 0.1% additive
  increase in the OSI time: 234%
[3]; 0.5% additive
  increase in the OSI time: 967%
[3]; 1.0% additive
  increase in the OSI time: 1054%
[4]
  OSI Time: 6.4 h
  improvement of OSI time compared to soybean oil alone: 831%
[5]
  OSI Time: 2.78 h
  improvement of OSI time compared to milkweed oil alone: 654%
